Assay results as given in patent US10344060B2 (priority 2013, dated 2019).
Values joined by “and” are separate entries in the source; they are usually repeats but may differ in a detail not shown here. Identical values can stand only once.

target: hNav1.7 (Homo sapiens, UniProt Q15858); test: cell-based; conditions: ratio of IonWorks Quattro IC50 values, Nav1.4 over Nav1.7
Sequence (Q15858 whole entry): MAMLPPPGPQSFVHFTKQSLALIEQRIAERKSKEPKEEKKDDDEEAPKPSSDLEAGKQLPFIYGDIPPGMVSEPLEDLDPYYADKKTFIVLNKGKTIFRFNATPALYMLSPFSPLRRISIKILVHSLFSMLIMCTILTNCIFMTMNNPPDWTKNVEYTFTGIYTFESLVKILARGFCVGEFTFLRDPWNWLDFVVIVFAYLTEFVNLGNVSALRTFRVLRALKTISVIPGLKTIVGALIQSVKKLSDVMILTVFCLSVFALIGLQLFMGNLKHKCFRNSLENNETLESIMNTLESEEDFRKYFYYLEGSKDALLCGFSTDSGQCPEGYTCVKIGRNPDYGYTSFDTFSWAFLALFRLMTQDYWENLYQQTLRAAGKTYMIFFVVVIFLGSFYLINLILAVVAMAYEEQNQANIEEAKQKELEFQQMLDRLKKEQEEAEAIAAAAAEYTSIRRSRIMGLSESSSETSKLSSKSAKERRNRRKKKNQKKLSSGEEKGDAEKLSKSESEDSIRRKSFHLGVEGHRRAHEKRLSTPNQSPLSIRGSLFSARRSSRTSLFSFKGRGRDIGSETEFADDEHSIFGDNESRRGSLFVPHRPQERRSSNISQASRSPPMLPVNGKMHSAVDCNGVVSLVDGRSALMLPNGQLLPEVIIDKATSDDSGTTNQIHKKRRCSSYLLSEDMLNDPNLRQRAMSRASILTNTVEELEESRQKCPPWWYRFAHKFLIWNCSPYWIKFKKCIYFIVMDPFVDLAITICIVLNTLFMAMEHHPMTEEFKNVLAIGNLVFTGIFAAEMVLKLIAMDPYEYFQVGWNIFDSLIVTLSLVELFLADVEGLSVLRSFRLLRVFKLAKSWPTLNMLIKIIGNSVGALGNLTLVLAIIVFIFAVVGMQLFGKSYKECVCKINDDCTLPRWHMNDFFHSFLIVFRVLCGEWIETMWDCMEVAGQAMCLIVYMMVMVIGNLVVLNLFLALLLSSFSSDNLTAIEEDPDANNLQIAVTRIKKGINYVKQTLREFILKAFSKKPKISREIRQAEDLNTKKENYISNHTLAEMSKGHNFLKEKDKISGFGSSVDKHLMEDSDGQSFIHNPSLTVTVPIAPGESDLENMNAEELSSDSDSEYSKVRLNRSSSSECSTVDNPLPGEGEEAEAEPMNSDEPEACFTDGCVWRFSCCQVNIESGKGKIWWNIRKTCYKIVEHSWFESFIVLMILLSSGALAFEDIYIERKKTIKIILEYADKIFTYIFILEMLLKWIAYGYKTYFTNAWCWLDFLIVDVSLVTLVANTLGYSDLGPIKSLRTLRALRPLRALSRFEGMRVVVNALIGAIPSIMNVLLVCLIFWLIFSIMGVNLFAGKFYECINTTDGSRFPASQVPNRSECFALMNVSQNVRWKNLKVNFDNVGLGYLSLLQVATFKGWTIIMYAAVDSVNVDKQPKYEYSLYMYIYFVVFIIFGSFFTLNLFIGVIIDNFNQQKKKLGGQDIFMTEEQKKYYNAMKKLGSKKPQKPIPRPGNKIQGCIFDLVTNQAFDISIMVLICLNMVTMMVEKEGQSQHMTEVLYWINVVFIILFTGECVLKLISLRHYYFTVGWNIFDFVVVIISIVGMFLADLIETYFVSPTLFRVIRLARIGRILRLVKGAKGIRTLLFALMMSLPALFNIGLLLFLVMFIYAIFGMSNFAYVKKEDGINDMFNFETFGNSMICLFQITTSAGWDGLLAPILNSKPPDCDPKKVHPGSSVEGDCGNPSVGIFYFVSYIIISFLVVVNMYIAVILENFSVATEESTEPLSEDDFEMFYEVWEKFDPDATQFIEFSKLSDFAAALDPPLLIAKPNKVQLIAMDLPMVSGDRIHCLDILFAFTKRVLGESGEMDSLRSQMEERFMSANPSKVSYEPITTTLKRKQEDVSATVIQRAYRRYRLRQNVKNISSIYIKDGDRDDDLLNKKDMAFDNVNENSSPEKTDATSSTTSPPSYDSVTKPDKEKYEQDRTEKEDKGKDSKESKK

Row | SMILES | Nav1.4/Nav1.7
1 | CC[C@H](C)[C@H](NC(=O)[C@@H](NC(=O)[C@H](CCCCN)NC(=O)[C@H](CCCNC(=N)N)NC(=O)[C@@H]1CSSC[C@@H]2NC(=O)[C@H](C)NC(=O)[C@H](CCCNC(=N)N)NC(=O)[C@H](CCCCN)NC(=O)[C@H](CO)NC(=O)[C@H](CC(=O)O)NC(=O)[C@@H]3CSSC[C@H](NC(=O)[C@H](Cc4ccc(C(=O)O)cc4)NC(=O)[C@H](CC(C)C)NC(=O)CNC(=O)[C@H](CCC(=O)O)NC(=O)[C@H](CSSC[C@H](NC(=O)[C@@H](N)Cc4ccc(O)cc4)C(=O)N[C@@H](CCC(N)=O)C(=O)N[C@@H](CCCCN)C(=O)N[C@@H](Cc4c[nH]c5ccccc45)C(=O)N[C@@H](CCSC)C(=O)N[C@@H](Cc4c[nH]c5ccccc45)C(=O)N[C@@H]([C@@H](C)O)C(=O)N3)NC2=O)C(=O)N[C@@H](CCCCN)C(=O)N[C@@H](CC(C)C)C(=O)N[C@@H](Cc2c[nH]c3ccccc23)C(=O)N1)[C@@H](C)CC)C(N)=O [compound 114] | 24
2 | CC[C@H](C)[C@H](NC(=O)[C@@H](NC(=O)[C@H](CCCCN)NC(=O)[C@H](CCCNC(=N)N)NC(=O)[C@@H]1CSSC[C@@H]2NC(=O)[C@H](C)NC(=O)[C@H](CCCNC(=N)N)NC(=O)[C@H](CCCCN)NC(=O)[C@H](CO)NC(=O)[C@H](CC(=O)O)NC(=O)[C@@H]3CSSC[C@H](NC(=O)[C@H]([C@@H](C)CC)NC(=O)[C@H](CC(C)C)NC(=O)CNC(=O)[C@H](CCC(=O)O)NC(=O)[C@H](CSSC[C@H](NC(=O)[C@@H](N)Cc4ccc(O)cc4)C(=O)N[C@@H](CCC(N)=O)C(=O)N[C@@H](CCCCN)C(=O)N[C@@H](Cc4c[nH]c5ccccc45)C(=O)N[C@@H](CCSC)C(=O)N[C@@H](Cc4c[nH]c5ccccc45)C(=O)N[C@@H]([C@@H](C)O)C(=O)N3)NC2=O)C(=O)N[C@@H](CCCCN)C(=O)N[C@@H](CC(C)C)C(=O)N[C@@H](Cc2c[nH]c3ccccc23)C(=O)N1)[C@@H](C)CC)C(N)=O [compound 118] | 15
3 | CC[C@H](C)[C@H](NC(=O)[C@@H](NC(=O)[C@H](CCCCN)NC(=O)[C@H](CCCNC(=N)N)NC(=O)[C@@H]1CSSC[C@@H]2NC(=O)[C@H](C)NC(=O)[C@H](CCCNC(=N)N)NC(=O)[C@H](CCCCN)NC(=O)[C@H](CO)NC(=O)[C@H](CC(=O)O)NC(=O)[C@@H]3CSSC[C@H](NC(=O)[C@H](CCCNC(N)=O)NC(=O)[C@H](CC(C)C)NC(=O)CNC(=O)[C@H](CCC(=O)O)NC(=O)[C@H](CSSC[C@H](NC(=O)[C@@H](N)Cc4ccc(O)cc4)C(=O)N[C@@H](CCC(N)=O)C(=O)N[C@@H](CCCCN)C(=O)N[C@@H](Cc4c[nH]c5ccccc45)C(=O)N[C@@H](CCSC)C(=O)N[C@@H](Cc4c[nH]c5ccccc45)C(=O)N[C@@H]([C@@H](C)O)C(=O)N3)NC2=O)C(=O)N[C@@H](CCCCN)C(=O)N[C@@H](CC(C)C)C(=O)N[C@@H](Cc2c[nH]c3ccccc23)C(=O)N1)[C@@H](C)CC)C(N)=O [compound 122] | 15
4 | CC[C@H](C)[C@H](NC(=O)[C@@H](NC(=O)[C@H](CCCCN)NC(=O)[C@H](CCCNC(=N)N)NC(=O)[C@@H]1CSSC[C@@H]2NC(=O)[C@H](C)NC(=O)[C@H](CCCNC(=N)N)NC(=O)[C@H](CCCCN)NC(=O)[C@H](CO)NC(=O)[C@H](CC(=O)O)NC(=O)[C@@H]3CSSC[C@H](NC(=O)[C@H](C(C)C)NC(=O)[C@H](CC(C)C)NC(=O)CNC(=O)[C@H](CCC(=O)O)NC(=O)[C@H](CSSC[C@H](NC(=O)[C@@H](N)Cc4ccc(O)cc4)C(=O)N[C@@H](CCC(N)=O)C(=O)N[C@@H](CCCCN)C(=O)N[C@@H](Cc4c[nH]c5ccccc45)C(=O)N[C@@H](CCSC)C(=O)N[C@@H](Cc4c[nH]c5ccccc45)C(=O)N[C@@H]([C@@H](C)O)C(=O)N3)NC2=O)C(=O)N[C@@H](CCCCN)C(=O)N[C@@H](CC(C)C)C(=O)N[C@@H](Cc2c[nH]c3ccccc23)C(=O)N1)[C@@H](C)CC)C(N)=O [compound 120] | 31
5 | CC[C@H](C)[C@H](NC(=O)[C@@H](NC(=O)[C@H](CCCCN)NC(=O)[C@H](CCCNC(=N)N)NC(=O)[C@@H]1CSSC[C@@H]2NC(=O)[C@H](C)NC(=O)[C@H](CCCNC(=N)N)NC(=O)[C@H](CCCCN)NC(=O)[C@H](CO)NC(=O)[C@H](CC(=O)O)NC(=O)[C@@H]3CSSC[C@H](NC(=O)[C@H](CO)NC(=O)[C@H](CC(C)C)NC(=O)CNC(=O)[C@H](CCC(=O)O)NC(=O)[C@H](CSSC[C@H](NC(=O)[C@@H](N)Cc4ccc(O)cc4)C(=O)N[C@@H](CCC(N)=O)C(=O)N[C@@H](CCCCN)C(=O)N[C@@H](Cc4c[nH]c5ccccc45)C(=O)N[C@@H](CCSC)C(=O)N[C@@H](Cc4c[nH]c5ccccc45)C(=O)N[C@@H]([C@@H](C)O)C(=O)N3)NC2=O)C(=O)N[C@@H](CCCCN)C(=O)N[C@@H](CC(C)C)C(=O)N[C@@H](Cc2c[nH]c3ccccc23)C(=O)N1)[C@@H](C)CC)C(N)=O [compound 125] | 17
6 | CCC[C@@H]1NC(=O)[C@H](Cc2c[nH]c3ccccc23)NC(=O)[C@H](CCCCN)NC(=O)[C@H](CCC(N)=O)NC(=O)[C@@H](NC(=O)[C@@H](N)Cc2ccc(O)cc2)CSSC[C@@H]2NC(=O)[C@@H]3CSSC[C@@H](C(=O)N[C@@H](CCCNC(=N)N)C(=O)N[C@@H](CCCCN)C(=O)N[C@H](C(=O)N[C@H](C(N)=O)[C@@H](C)CC)[C@@H](C)CC)NC(=O)[C@H](Cc4c[nH]c5ccccc45)NC(=O)[C@H](CC(C)C)NC(=O)[C@H](CCCCN)NC(=O)[C@H](CSSC[C@H](NC(=O)[C@H]([C@@H](C)O)NC(=O)[C@H](Cc4c[nH]c5ccccc45)NC1=O)C(=O)N[C@@H](CC(=O)O)C(=O)N[C@@H](CO)C(=O)N[C@@H](CCCCN)C(=O)N[C@@H](CCCNC(=N)N)C(=O)N[C@@H](C)C(=O)N3)NC(=O)[C@H](CCC(=O)O)NC(=O)[C@H](CC(C)C)NC(=O)CNC(=O)[C@H](CCC(=O)O)NC2=O [compound 111] | 7
7 | CC[C@H](C)[C@H](NC(=O)[C@H](Cc1ccc(C(=O)O)cc1)NC(=O)[C@H](CCCCN)NC(=O)[C@H](CCCNC(=N)N)NC(=O)[C@@H]1CSSC[C@@H]2NC(=O)[C@H](C)NC(=O)[C@H](CCCNC(=N)N)NC(=O)[C@H](CCCCN)NC(=O)[C@H](CO)NC(=O)[C@H](CC(=O)O)NC(=O)[C@@H]3CSSC[C@H](NC(=O)[C@H](CCC(=O)O)NC(=O)[C@H](CC(C)C)NC(=O)CNC(=O)[C@H](CCC(=O)O)NC(=O)[C@H](CSSC[C@H](NC(=O)[C@@H](N)Cc4ccc(O)cc4)C(=O)N[C@@H](CCC(N)=O)C(=O)N[C@@H](CCCCN)C(=O)N[C@@H](Cc4c[nH]c5ccccc45)C(=O)N[C@@H](CCSC)C(=O)N[C@@H](Cc4c[nH]c5ccccc45)C(=O)N[C@@H]([C@@H](C)O)C(=O)N3)NC2=O)C(=O)N[C@@H](CCCCN)C(=O)N[C@@H](CC(C)C)C(=O)N[C@@H](Cc2c[nH]c3ccccc23)C(=O)N1)C(N)=O [compound 127] | 2
8 | CC[C@H](C)[C@H](NC(=O)[C@@H](NC(=O)[C@H](CCCCN)NC(=O)[C@H](CCCNC(=N)N)NC(=O)[C@@H]1CSSC[C@@H]2NC(=O)[C@H](C)NC(=O)[C@H](CCCNC(=N)N)NC(=O)[C@H](CCCCN)NC(=O)[C@H](CO)NC(=O)[C@H](CC(=O)O)NC(=O)[C@@H]3CSSC[C@H](NC(=O)[C@H](CC(C)C)NC(=O)[C@H](CC(C)C)NC(=O)CNC(=O)[C@H](CCC(=O)O)NC(=O)[C@H](CSSC[C@H](NC(=O)[C@@H](N)Cc4ccc(O)cc4)C(=O)N[C@@H](CCC(N)=O)C(=O)N[C@@H](CCCCN)C(=O)N[C@@H](Cc4c[nH]c5ccccc45)C(=O)N[C@@H](CCSC)C(=O)N[C@@H](Cc4c[nH]c5ccccc45)C(=O)N[C@@H]([C@@H](C)O)C(=O)N3)NC2=O)C(=O)N[C@@H](CCCCN)C(=O)N[C@@H](CC(C)C)C(=O)N[C@@H](Cc2c[nH]c3ccccc23)C(=O)N1)[C@@H](C)CC)C(N)=O [compound 119] | 14
9 | CC[C@H](C)[C@H](NC(=O)[C@H](CCC(=O)O)NC(=O)[C@H](CCCCN)NC(=O)[C@H](CCCNC(=N)N)NC(=O)[C@@H]1CSSC[C@@H]2NC(=O)[C@H](C)NC(=O)[C@H](CCCNC(=N)N)NC(=O)[C@H](CCCCN)NC(=O)[C@H](CO)NC(=O)[C@H](CC(=O)O)NC(=O)[C@@H]3CSSC[C@H](NC(=O)[C@H](CCC(=O)O)NC(=O)[C@H](CC(C)C)NC(=O)CNC(=O)[C@H](CCC(=O)O)NC(=O)[C@H](CSSC[C@H](NC(=O)[C@@H](N)Cc4ccc(O)cc4)C(=O)N[C@@H](CCC(N)=O)C(=O)N[C@@H](CCCCN)C(=O)N[C@@H](Cc4c[nH]c5ccccc45)C(=O)N[C@@H](CCSC)C(=O)N[C@@H](Cc4c[nH]c5ccccc45)C(=O)N[C@@H]([C@@H](C)O)C(=O)N3)NC2=O)C(=O)N[C@@H](CCCCN)C(=O)N[C@@H](CC(C)C)C(=O)N[C@@H](Cc2c[nH]c3ccccc23)C(=O)N1)C(N)=O [compound 126] | 5 and 3
10 | CCC[C@@H]1NC(=O)[C@H](CC(C)C)NC(=O)CNC(=O)[C@H](CCC(=O)O)NC(=O)[C@@H]2CSSC[C@H](NC(=O)[C@@H](N)Cc3ccc(O)cc3)C(=O)N[C@@H](CCC(N)=O)C(=O)N[C@@H](CCCCN)C(=O)N[C@@H](Cc3c[nH]c4ccccc34)C(=O)N[C@@H](CCSC)C(=O)N[C@@H](Cc3c[nH]c4ccccc34)C(=O)N[C@@H]([C@@H](C)O)C(=O)N[C@H]3CSSC[C@H](NC1=O)C(=O)N[C@@H](CCCCN)C(=O)N[C@@H](CC(C)C)C(=O)N[C@@H](Cc1c[nH]c4ccccc14)C(=O)N[C@H](C(=O)N[C@@H](CCCNC(=N)N)C(=O)N[C@@H](CCCCN)C(=O)N[C@H](C(=O)N[C@H](C(N)=O)[C@@H](C)CC)[C@@H](C)CC)CSSC[C@H](NC(=O)[C@H](C)NC(=O)[C@H](CCCNC(=N)N)NC(=O)[C@H](CCCCN)NC(=O)[C@H](CO)NC(=O)[C@H](CC(=O)O)NC3=O)C(=O)N2 [compound 123] | 19

same assay, conditions: ratio of IonWorks Quattro IC50 values; Table 8

Row | SMILES | Nav1.4/Nav1.7
11 | CC[C@H](C)[C@H](NC(=O)[C@H](Cc1ccc(O)cc1)NC(=O)[C@H](CCCCN)NC(=O)[C@H](CCCNC(=N)N)NC(=O)[C@@H]1CSSC[C@@H]2NC(=O)[C@H](C)NC(=O)[C@H](CCCNC(=N)N)NC(=O)[C@H](CCCCN)NC(=O)[C@H](CO)NC(=O)[C@H](CC(=O)O)NC(=O)[C@@H]3CSSC[C@H](NC(=O)[C@H](CCCNC(=N)N)NC(=O)[C@H](CC(C)C)NC(=O)CNC(=O)[C@H](CCC(=O)O)NC(=O)[C@H](CSSC[C@H](NC(=O)[C@@H](N)CCC(=O)O)C(=O)N[C@@H](CCC(N)=O)C(=O)N[C@@H](CCCCN)C(=O)N[C@@H](Cc4c[nH]c5ccccc45)C(=O)N[C@@H](CCSC)C(=O)N[C@@H](Cc4c[nH]c5ccccc45)C(=O)N[C@@H]([C@@H](C)O)C(=O)N3)NC2=O)C(=O)N[C@@H](CCCCN)C(=O)N[C@@H](CC(C)C)C(=O)N[C@@H](Cc2c[nH]c3ccccc23)C(=O)N1)C(N)=O [compound 278] | 16
